The nature of assay [1]: Cytotoxicity screening for potential Inhibitors of Bacterial Capsule Biogenesis. [Related pubchem assays (depositor defined):AID488970]. In kind it is functional.
Assay [2] addresses Nucleotide-binding oligomerization domain-containing protein 1 (Homo sapiens, UniProt Q9Y239). In words: blockers of NOD1 pathway activity – revised, SAR follow-up (AID 2333). The class given is functional.
Assay [3] deals with T1, Short transient receptor potential channel 4 (Mus musculus, UniProt Q9QUQ5).
T1 sequence (Q9QUQ5 whole entry): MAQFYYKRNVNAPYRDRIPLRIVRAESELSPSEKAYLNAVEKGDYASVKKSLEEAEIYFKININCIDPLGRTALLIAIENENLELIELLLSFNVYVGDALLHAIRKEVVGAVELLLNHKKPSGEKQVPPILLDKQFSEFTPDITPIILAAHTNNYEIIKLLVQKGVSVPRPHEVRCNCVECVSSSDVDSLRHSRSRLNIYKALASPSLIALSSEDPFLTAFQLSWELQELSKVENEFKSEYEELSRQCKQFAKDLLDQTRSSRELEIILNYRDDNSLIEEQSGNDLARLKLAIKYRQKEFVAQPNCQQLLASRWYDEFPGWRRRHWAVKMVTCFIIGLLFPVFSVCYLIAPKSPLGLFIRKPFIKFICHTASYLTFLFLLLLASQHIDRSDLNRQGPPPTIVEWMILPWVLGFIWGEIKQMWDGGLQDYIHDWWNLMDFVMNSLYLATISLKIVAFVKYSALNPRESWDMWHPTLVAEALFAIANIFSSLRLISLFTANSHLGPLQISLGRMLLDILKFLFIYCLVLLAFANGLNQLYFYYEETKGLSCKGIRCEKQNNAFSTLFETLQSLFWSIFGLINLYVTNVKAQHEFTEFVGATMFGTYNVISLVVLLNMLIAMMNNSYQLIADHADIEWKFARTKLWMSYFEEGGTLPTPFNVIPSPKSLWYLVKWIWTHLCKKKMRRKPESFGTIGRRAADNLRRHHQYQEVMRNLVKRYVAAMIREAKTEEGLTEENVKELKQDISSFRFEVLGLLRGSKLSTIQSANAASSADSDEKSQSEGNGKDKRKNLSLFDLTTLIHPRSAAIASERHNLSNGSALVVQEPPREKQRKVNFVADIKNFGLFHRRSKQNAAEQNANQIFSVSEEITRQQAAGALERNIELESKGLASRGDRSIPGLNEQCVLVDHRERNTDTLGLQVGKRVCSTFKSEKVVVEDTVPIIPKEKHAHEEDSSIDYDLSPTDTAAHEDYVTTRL
In words: block of DAMGO-driven TRPC4 calcium entry – cell-based, HEK293 TRPC4/mu-opioid, Fluo-4 calcium, dose response (AID 434942).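 Further: potency of inhibitors blocking the TRPC4 calcium response.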 In kind it is functional.

For assay [4], the target named is T2, Nucleotide-binding oligomerization domain-containing protein 2 (Homo sapiens, UniProt Q9HC29). In words: PubChem AID 2334. In kind it is functional.
T2 sequence (Q9HC29 whole entry, the tested form may be a part): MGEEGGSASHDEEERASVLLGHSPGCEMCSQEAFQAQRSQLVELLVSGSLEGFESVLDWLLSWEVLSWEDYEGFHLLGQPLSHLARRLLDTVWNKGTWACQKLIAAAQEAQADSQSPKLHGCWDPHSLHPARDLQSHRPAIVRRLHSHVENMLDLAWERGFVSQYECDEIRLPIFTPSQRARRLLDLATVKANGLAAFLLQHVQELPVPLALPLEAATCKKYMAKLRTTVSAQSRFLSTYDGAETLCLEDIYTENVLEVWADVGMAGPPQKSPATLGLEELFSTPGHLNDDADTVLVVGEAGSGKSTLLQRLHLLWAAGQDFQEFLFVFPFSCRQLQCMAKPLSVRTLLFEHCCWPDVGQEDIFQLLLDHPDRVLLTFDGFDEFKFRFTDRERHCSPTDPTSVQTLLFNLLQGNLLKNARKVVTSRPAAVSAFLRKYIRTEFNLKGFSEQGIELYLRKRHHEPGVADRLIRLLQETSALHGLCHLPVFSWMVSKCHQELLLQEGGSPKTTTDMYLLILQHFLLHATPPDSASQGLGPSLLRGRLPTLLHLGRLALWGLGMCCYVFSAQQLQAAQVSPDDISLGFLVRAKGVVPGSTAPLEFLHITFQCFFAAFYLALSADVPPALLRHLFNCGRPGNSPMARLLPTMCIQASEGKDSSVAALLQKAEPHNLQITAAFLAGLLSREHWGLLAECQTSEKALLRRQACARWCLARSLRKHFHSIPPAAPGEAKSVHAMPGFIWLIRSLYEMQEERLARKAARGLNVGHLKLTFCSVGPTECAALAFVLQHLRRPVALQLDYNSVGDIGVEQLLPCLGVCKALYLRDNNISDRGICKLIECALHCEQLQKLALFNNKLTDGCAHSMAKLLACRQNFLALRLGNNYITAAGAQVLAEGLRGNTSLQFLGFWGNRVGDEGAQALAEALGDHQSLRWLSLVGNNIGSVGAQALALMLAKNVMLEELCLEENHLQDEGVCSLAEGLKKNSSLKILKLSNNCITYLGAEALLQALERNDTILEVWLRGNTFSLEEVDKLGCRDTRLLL
For another assay, the target named is Tumor necrosis factor (Homo sapiens, UniProt P01375). In words: analog potency on TNFa NF-kB signaling – cell-based, revised, SAR follow-up (AID 2337). The class given is functional.
Chain of Tumor necrosis factor (P01375 whole entry): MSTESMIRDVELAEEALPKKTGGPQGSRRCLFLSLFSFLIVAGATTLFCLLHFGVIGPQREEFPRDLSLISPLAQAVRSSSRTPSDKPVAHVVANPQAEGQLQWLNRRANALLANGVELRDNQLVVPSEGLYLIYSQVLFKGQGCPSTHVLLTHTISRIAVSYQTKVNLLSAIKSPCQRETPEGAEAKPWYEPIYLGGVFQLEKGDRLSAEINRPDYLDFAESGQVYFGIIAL
For a further assay, the target named is T3, Cysteine protease ATG4B (Homo sapiens, UniProt Q9Y4P1).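 Further: Fluorescence-based dose-response confirmation assay measuring inhibition of ATG4B activity.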
T3 sequence (Q9Y4P1 whole entry): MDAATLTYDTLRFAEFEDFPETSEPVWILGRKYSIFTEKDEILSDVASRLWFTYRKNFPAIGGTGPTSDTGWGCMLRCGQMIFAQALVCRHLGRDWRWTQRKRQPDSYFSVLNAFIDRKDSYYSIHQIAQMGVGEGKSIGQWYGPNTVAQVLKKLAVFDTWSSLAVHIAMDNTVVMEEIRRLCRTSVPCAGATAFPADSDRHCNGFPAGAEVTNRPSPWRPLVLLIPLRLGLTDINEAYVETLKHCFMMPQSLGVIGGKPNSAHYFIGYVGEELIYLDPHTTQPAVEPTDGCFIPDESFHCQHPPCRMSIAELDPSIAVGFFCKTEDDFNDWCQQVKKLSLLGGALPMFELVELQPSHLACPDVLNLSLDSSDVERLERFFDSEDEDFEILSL
In kind it is functional.

Another assay has as its target Phospholipase A2 (Homo sapiens, UniProt P04054). The class given is functional.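 Further: confirmatory dose-response counterscreen on phospholipase A2, testing hits that came from an ultra-high-throughput screen for ATG4B inhibitors.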
The target in assay [5] is T2, Nucleotide-binding oligomerization domain-containing protein 2. In words: inhibition of NOD2-driven NF-kB reporter – cell-based, luminescence, uHTS, HEK293 (AID 1566). The class given is functional.
Assay [6] is described as follows: NIH3T3 cell viability loss – ATP luminescence, mouse fibroblasts, counter-screen, dose response (AID 2010).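 Further: cells exposed to compound for about 90 hours before reading.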 The class given is functional, cell-based.
Assay [7] deals with T4, G-protein coupled receptor 35 (Homo sapiens, UniProt Q9HC97). In words: SAR Analysis for the identification of Selective Antagonists of ERK1/2 Activity in GPR35-Overexpressing U2OS Cells. [Related pubchem assays: 2079, 2058 ]. The class given is functional, cell-based.
T4 sequence (Q9HC97 whole entry): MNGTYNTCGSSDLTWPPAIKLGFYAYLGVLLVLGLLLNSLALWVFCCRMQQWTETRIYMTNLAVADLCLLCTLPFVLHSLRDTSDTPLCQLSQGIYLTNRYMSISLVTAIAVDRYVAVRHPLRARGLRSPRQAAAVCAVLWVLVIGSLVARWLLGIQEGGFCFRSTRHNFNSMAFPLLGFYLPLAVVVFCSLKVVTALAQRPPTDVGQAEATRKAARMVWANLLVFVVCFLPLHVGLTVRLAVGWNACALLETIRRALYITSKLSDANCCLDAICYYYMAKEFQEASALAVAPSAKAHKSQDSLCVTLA
Assay [8] has as its target G-protein coupled receptor 55 (Homo sapiens, UniProt Q9Y2T6). In words: blockers of GPR55 signalling, imaged – imaging, image-based, counter-screen for GPR35 antagonist project, SAR follow-up (AID 2397). The class given is functional.
Assay [9] addresses T4, G-protein coupled receptor 35. Nature of the assay: inhibition of zaprinast-stimulated GPR35 beta-arrestin translocation – imaging, U2OS, beta-arrestin-GFP, zaprinast agonist, primary screen (AID 2058).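 Further: antagonist potency meaning inhibition of agonist-induced arrestin redistribution.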 The class given is functional.
A short description of assay [10]: Trypanosoma cruzi growth suppression in host cells – NIH3T3 host cells, beta-gal luminescence, confirmation (AID 2044).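 Further: intracellular parasites grown in NIH/3T3 mouse fibroblasts as host cells; luminescent beta-galactosidase reporter signal from transgenic T. cruzi replicating inside host cells; inhibitors lower the luminescence signal.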 In kind it is functional, cell-based.
The next assay has as its target Bcl-2-like protein 10 (Homo sapiens, UniProt Q9HD36). In words: Bcl-B/TR3 peptide binding disruption – biochemical, fluorescence polarization, FITC-TR3 peptide, selectivity assay for Bfl-1 inhibitor project, primary screen (AID 748). (In general: Fluorescence polarisation rises when a labelled molecule tumbles more slowly, as on binding a larger partner.)

Active and inactive are the calls of the source. Bounds are passed on as bounds.

Chain of G-protein coupled receptor 55 (Q9Y2T6 whole entry): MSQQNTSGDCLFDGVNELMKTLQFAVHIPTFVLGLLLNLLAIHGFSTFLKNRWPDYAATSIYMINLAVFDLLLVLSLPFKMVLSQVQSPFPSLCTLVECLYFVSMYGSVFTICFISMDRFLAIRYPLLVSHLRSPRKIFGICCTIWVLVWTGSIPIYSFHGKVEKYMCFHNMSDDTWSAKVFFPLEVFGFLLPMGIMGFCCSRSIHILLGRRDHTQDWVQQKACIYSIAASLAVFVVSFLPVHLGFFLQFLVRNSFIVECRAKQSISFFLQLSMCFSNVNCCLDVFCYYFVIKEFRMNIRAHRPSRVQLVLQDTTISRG
Chain of Nucleotide-binding oligomerization domain-containing protein 1 (Q9Y239 whole entry, the tested form may be a part): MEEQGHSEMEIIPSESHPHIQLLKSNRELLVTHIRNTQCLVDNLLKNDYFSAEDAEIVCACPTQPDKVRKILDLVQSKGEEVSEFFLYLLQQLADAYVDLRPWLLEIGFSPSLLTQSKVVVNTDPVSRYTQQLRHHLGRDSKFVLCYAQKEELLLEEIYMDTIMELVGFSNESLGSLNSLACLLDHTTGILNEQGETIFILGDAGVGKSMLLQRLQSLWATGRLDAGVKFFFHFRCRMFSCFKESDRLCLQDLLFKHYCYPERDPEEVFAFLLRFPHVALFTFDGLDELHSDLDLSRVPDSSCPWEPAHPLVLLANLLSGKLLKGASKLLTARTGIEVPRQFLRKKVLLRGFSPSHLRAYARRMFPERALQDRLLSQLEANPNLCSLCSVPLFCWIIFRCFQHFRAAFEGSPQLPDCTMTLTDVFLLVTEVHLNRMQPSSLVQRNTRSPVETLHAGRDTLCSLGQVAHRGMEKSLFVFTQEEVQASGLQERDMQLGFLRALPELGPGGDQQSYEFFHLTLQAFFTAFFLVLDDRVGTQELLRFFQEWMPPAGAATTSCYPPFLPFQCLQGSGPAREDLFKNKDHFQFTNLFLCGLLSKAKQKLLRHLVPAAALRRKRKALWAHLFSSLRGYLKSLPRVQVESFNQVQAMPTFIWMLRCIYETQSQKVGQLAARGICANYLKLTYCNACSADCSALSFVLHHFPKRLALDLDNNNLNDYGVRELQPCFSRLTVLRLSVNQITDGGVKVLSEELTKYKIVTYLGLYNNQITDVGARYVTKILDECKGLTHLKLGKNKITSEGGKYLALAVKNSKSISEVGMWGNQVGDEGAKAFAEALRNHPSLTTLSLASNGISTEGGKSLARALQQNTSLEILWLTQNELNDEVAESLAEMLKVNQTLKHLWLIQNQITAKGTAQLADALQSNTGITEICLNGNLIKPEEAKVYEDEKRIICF
Chain of Phospholipase A2 (P04054 whole entry, the tested form may be a part): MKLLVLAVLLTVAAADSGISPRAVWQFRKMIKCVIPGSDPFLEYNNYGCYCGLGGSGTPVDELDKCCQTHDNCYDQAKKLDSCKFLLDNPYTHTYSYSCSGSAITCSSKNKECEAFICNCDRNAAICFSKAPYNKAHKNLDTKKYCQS
Chain of Bcl-2-like protein 10 (Q9HD36 whole entry): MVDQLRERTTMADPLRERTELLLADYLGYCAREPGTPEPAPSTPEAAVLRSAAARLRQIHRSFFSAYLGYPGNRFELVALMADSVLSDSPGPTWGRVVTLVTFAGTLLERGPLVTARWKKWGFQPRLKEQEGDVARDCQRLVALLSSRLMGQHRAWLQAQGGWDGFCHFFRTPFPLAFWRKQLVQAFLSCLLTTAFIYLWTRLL

Take `C=CCOc1ccc(C2c3c(oc4ccccc4c3=O)C(=O)N2CCCN2CCOCC2)cc1` (centres undefined): the CC50 in assay [1] is > 100 µM (active).

In the case of `Cc1ccc(CSc2nc(-c3ccccc3)c(C#N)c(=O)[nH]2)cc1`, the IC50 is 5.5 µM (active) in assay [2]; 6.9 µM (active) in assay [4]; 8.2 µM (active) at Tumor necrosis factor; 7.62 µM (active) on Cysteine protease ATG4B; 21.2 µM (inactive) at Phospholipase A2. Besides, the EC50 in assay [3] is 5.31 µM (active); in assay [5] it was 13.2 µM (active).

Consider `Cc1ccc(Cn2ncc3c(N4CCN(c5ccccc5C)CC4)ncnc32)cc1`, for which the EC50 in assay [6] was > 60 µM (not active); in assay [10], 1.6 µM (active). Also, the IC50 in [7] was 17.7 µM (not active); in assay [8] it was > 32 µM (inactive); in assay [9], 0.761 µM (active).

Regarding `Cc1cc2cc(CN(Cc3ccco3)S(=O)(=O)c3c(C)ccc4nsnc34)c(=O)[nH]c2cc1C`, the IC50 at Bcl-2-like protein 10 was > 100 µM (inactive).

One may read the CC50 as the concentration that lowers cell viability or growth by half. For orientation: IC50 means the midpoint of a concentration-inhibition curve. As usually defined, the EC50 is the concentration needed to bring the measured effect to its halfway point.

Values taken from ChEMBL document CHEMBL1201862, “PubChem BioAssay data set” (2004).
